Tests used:
[1] = tested on: MV-4-11 (acute myeloid leukemia (AML)); test: CellTiter-Glo (CTG) cell proliferation assay, MV-4-11; assay type: cell-based; settings: Homo sapiens, MV4-11; MV-4-11, single agent alone, 24 hours; read-out: IC50 for inhibition of proliferation
Procedure: Anti-proliferative effects were tested by CellTiter-Glo® (CTG) assay. Cells were seeded in 96-well plates and treated with different concentrations of test substance for 24 hours. […] Each test dose was tested with 3 replicate wells. Usually, 9 series of doses of the test substance were selected, and added to 96-well plates, 5 μl/well. For the combination experiment, the final volume of the two test substances was 5 μl/well. Each test dose was tested with 3 replicate wells. On the same plate, 3-6 wells were selected and added with 100 μl of dilution solution as a control group, and another 3-6 wells were used as a blank control. […] After mixing on a shaker for 2 minutes, leaving at room temperature for 10 minutes, the fluorescence value was read by using a Biotek synergy HIMF plate reader. […] For the combination test, the cell viability was calculated by normalizing the average OD value of 3 duplicate wells of the single drug control. […] Cell viability (%) values of Compound 6 alone and the combination of Compound 6 and APG-115 in the following malignant tumor cells were determined in the CTG experiment: OCI-AML-3 (acute myeloid leukemia (AML)), MV-4-11 (acute myeloid leukemia (AML)), KMS-26 (multiple myeloma (MM)), KMS-11 (multiple myeloma (MM)).

[2] = tested on: human OCI-AML-3 (AML) mouse xenograft tumor; test: Human OCI-AML-3 AML mouse xenograft tumor model; assay type: in vivo; settings: for antitumor effect in words: 11 days of administration, Compound 6 25 or 100 mg/kg qd, APG-115 100 mg/kg (d1-d4) and 50 mg/kg (d5-d11) q2d
From the text: A subcutaneous xenograft tumor model of human tumor immunodeficient mice was established by cell inoculation (see: Gould S E et al. Translational value of mouse models in oncology drug development. Nature medicine. 2015 21, 431-439; and, Souers A J et al. ABT-199, a potent and selective BCL-2 inhibitor, achieves antitumor activity while sparing platelets. Nature medicine. 2012 19.202-208): tumor cells in logarithmic growth phase were collected, counted and resuspended in 1×PBS, and the cell suspension concentration was adjusted to 2.5-5×10^7/mL. Using a 1 mL syringe ([…]), the tumor cells were inoculated subcutaneously in the right side of immunodeficient mice, 5-10×106/0.2 mL/mouse (experimental animals were purchased from Beijing Vital River Laboratory Animal Technology Co., Ltd. SCXK (Beijing) 2016-0006). All animal experiments were strictly in accordance with the laboratory animal use and management practices of GenePharma Co., Ltd. and Ascentage Pharma Group Co., Ltd. The calculation of relevant parameters referred to the Chinese CFDA “Guidelines for Non-Clinical Research Techniques of Cytotoxic Antitumor Drugs”.
Animal body weight and tumor size were measured twice a week during the experiment. The conditions and death of the animals were observed every day. Routine monitoring included the effects of tumor growth and treatment on normal animal behaviors, including activity, feeding and drinking situations, weight gain or loss, eyes, coat and other abnormalities in the experimental animals. The deaths and clinical symptoms observed during the experiment were recorded in the raw data. The entire operations of administration, measurement of mouse body weight and tumor volume were performed in a clean bench. Plasma and tumor tissues were collected, weighed and photographed after the end of the last administration according to the experimental protocol. Plasma and tumor samples were frozen and stored at −80° C.
Tumor volume (TV) was calculated as: TV=a×b2/2, in which a and b represented the length and width of the tumor as measured, respectively. The relative tumor volume (RTV) was calculated as: RTV=Vt/V1, in which V1 was the tumor volume at the time of grouping and administration, and Vt was the tumor volume measured on a day after administration. The evaluation index of anti-tumor activity was the relative tumor proliferation rate T/C (%), which was calculated as: relative tumor proliferation rate T/C (%)=(TRTV/CRTV)×100%, in which TRTV was the RTV of the treatment group, CRTV was the RTV of the vehicle control group; tumor remission rate (%) was calculated as: (the number of SD (stable disease), PR (tumor partial regression) and CR (tumor complete regression) in the tumor-bearing mice after treatment)/the total number of mice in the group×100%. Change of body weight %=(measured body weight−body weight at the time of grouping)/body weight at the time of grouping×100%.
The synergistic analysis was performed by the following formula (Gould S E et al. Translational value of mouse models in oncology drug development. Nature medicine. 2015 21, 431-439): synergy factor=((A/C)×(B/C))/(AB/C); A=RTV value of the group administered with A only; B═RTV value of the group administered with B only; C=RTV value of the vehicle control group; AB=RTV value of the group administered with A and B in combination (Clarke R. Issues in experimental design and endpoint analysis in the study of experimental cytotoxic agents in vivo in breast cancer and other models [J]. Breast Cancer Research & Treatment, 1997, 46(2-3): 255-278).
(1) The experimental method was as described in Section (2) of Example 1. […] Therefore, a mouse xenograft tumor model was further established using the OCI-AML-3 tumor cell line to evaluate the in vivo anti-tumor effects of Compound 6 and APG-115. […]

[3] = APG-115 50 mg/kg alone (text: 100 mg/kg d1-d4, 50 mg/kg d5-d11, q2d)
[4] = Compound 6 25 mg/kg qd, alone or with APG-115 50 mg/kg
[5] = Compound 6 100 mg/kg qd, alone or with APG-115 50 mg/kg

## CCN1[C@@H](C(=O)NC23CCC(C(=O)O)(CC2)CC3)[C@H](c2cccc(Cl)c2F)[C@]2(C(=O)Nc3cc(Cl)ccc32)C12CCCCC2 [APG-115]
[1]
  IC50: 1960 nM
[2]
  antitumor effect in words: did not exhibit tumor growth inhibition
[2]; [3]
  RTV on day 11 after administration: 12.5 ± 2.5
  T/C (%) value on day 11 after administration: 69%

## O=C(NS(=O)(=O)c1ccc(NC[C@H]2COCCO2)c([N+](=O)[O-])c1)c1ccc(N2CCN(CC3=C(c4ccc(Cl)cc4)CC4(CCC4)CC3)CC2)cc1Oc1cnc2[nH]ccc2c1 [Compound 6, (S)-N-((4-(((1,4-dioxan-2-yl)methyl)amino)-3-nitrophe-nyl)sulfonyl)-2-((1H-pyrrolo[2,3-b]pyridin-5-yl)oxy)-4-(4-((6-(4-chlorophenyl)spiro[3.5]non-6-en-7-yl)meth-yl)piperazin-1-yl)benzamide]
[1]
  IC50: 84.7 nM
[2]
  antitumor effect in words: did not exhibit tumor growth inhibition
[2]; [4]
  RTV on day 11 after administration: 16.2 ± 2.3
  T/C (%) value on day 11 after administration: 90%
[2]; [5]
  RTV on day 11 after administration: 13.0 ± 1.9
  T/C (%) value on day 11 after administration: 72%

— patent publication US11478469B2, “Combination product of BCL-2 inhibitor and MDM2 inhibitor and use thereof in the prevention and/or treatment of diseases” (ASCENTAGE PHARMA (SUZHOU) CO., LTD., priority 2018, dated 2022)
